# Legend:
# [1] = system: staphylococcal infected rabbits; test: Rabbit model of aortic valve endocarditis; type: in vivo
# Description: The simultaneous treatment of staphylococcal infection with suppression of resistant strain formation is an exciting and widely useful invention nowhere predicted in the art. This invention offers the possibility of treating staphylococcal infections while suppressing the generation of strains resistant to any or all active agents administered.
# [2] = system: strains 27619, Col, 27227 and VA348; test: Checkerboard susceptibility testing of lysostaphin and oxacillin; type: cell-based; details: oxacillin in concentrations up to 1 μg/ml; all strains tested
# Description: Checkerboard susceptibility testing was conducted to determine whether simultaneous administration of lysostaphin and oxacillin (a β-lactam) would be effective in suppressing the development of resistance. Oxacillin concentrations varied between 0.0156 μg/ml and 1 μg/ml. Lysostaphin concentrations varied between 0.00048 and 0.9 μg/ml. Four strains were tested for evidence of synergy between lysostaphin and oxacillin; 27619, Col, 27227 and VA348.
# [3] = lysostaphin 1 mg/kg bid (low dose), alone or together with nafcillin
substance,measurement,setting,value
lysostaphin,Bacterial counts in kidneys,[1]; [3],high counts
same,Bacterial counts in vegetations,[1]; [3],high counts
same,Recovery of resistant colonies/strains,[1]; [3],recovery of a number of resistant colonies
same,Minimum dose for sterilization,[1]; lysostaphin alone,5 mg/kg tid
same,MIC of lysostaphin in the presence of oxacillin,[2],unchanged
